Assay results taken from PMC10762035, “Molecular basis of human trace amine-associated receptor 1 activation” (Nature Communications, 2024).
Changes are numbered by the printed parent chain. Several values for one entry are separate records, joined by “and”; a condition that tells them apart may be missing. Identical values can stand only once. Like-named read-outs stand apart in the source and are kept apart here.

Tests used:
Type in all cases: cell-based
[1] = biological target: T1, hTA1 C5S (Homo sapiens, UniProt Q96RJ0, C5S); experiment: GloSensor cAMP accumulation assay, C5S mutant; details: for EC50: read-out: EC50; for C5S - Normalized Luminescence Counts (N=2): log[Compound], single wells
T1 construct: expressed in transfected cells; host or cells: HEK293T
T1 sequence (Q96RJ0 1-339 C5S): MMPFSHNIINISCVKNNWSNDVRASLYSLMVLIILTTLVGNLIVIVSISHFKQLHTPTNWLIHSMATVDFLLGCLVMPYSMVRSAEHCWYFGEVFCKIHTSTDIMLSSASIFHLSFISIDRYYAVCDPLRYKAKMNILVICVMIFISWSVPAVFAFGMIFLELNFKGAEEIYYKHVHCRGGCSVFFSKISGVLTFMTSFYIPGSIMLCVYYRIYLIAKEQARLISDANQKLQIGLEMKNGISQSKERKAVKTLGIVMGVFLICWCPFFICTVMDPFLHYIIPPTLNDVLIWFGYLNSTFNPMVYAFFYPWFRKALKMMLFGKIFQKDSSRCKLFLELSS

[2] = biological target: T2, hTA1 S107C (Homo sapiens, UniProt Q96RJ0, S107C); experiment: GloSensor cAMP accumulation assay, S107C mutant;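 further: cells transiently co-expressing receptor and GloSensor biosensor, luminescence read after 30 min agonist exposure at room temperature, concentration-response fitted by nonlinear regression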
T2 construct: expressed in transfected cells; host or cells: HEK293T
T2 sequence (Q96RJ0 1-339 S107C): T1 sequence (Q96RJ0 1-339 C5S) with S5C, S107C

[3] = biological target: T3, hTA1 (Homo sapiens, UniProt Q96RJ0); experiment: Screen of 89 aminergic compounds at 10 µM, cAMP accumulation in HEK293T cells; details: 10 µM of compound; HEK293T; threshold log2-fold change of 2;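 further: HEK293T cells co-transfected with hTA1 and GloSensor cAMP reporter, cAMP accumulation detected by luminescence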
T3 construct: expressed in transfected cells; host or cells: HEK293T
T3 sequence (Q96RJ0 1-339): T1 sequence (Q96RJ0 1-339 C5S) with S5C

[4] = biological target: T4, hTA1 I290N (Homo sapiens, UniProt Q96RJ0, I290N); experiment: GloSensor cAMP accumulation assay, I290N mutant;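 further: cells transiently co-expressing hTA1 and the GloSensor cAMP biosensor, luminescence read 30 min after compound addition at room temperature, efficacy scaled to the maximal β-PEA response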
T4 construct: expressed in transfected cells; host or cells: HEK293T
T4 sequence (Q96RJ0 1-339 I290N): T1 sequence (Q96RJ0 1-339 C5S) with S5C, I290N

[5] = biological target: T5, hTA1 C13S (Homo sapiens, UniProt Q96RJ0, C13S); experiment: GloSensor cAMP accumulation assay, C13S mutant; details: for EC50: read-out: EC50; for C13S - Normalized Luminescence Counts (N=2): log[Compound], single wells
T5 construct: expressed in transfected cells; host or cells: HEK293T
T5 sequence (Q96RJ0 1-339 C13S): T1 sequence (Q96RJ0 1-339 C5S) with S5C, C13S

[6] = hTA1 I290N mutant minus WT average

`CN1CC2c3ccccc3Oc3ccc(Cl)cc3C2C1` (centres unmarked) [asenapine] was tested, and the EC50 ([1]; C5S, n=2) was 0.261 µM, the Emax ([1]; C5S, n=2, read-out: Span ± SEM (Emax normalized to β-PEA)) was 83.2 ± 1.59% and the “Emax values, Mean” value ([2]; S107C, Asenapine, per experiment, 3 replicates) was 91.6842 and 105.217. The EC50 ([2]; S107C, Asenapine, per experiment, 3 replicates, read-out: pEC50 values Mean (converted)) was 0.383 µM and 0.996 µM, the EC50 ([2]; S107C, n=2, read-out: EC50) was 0.618 µM and the Emax ([2]; S107C, n=2, read-out: Span ± SEM (Emax normalized to β-PEA)) was 98.5 ± 6.76%. The “increase of signal over DMSO-treated controls (hTA1 activation)” value [3] was no less than 4 fold, the “reduction in potency vs wild type” value ([4]; I290N) was 4 fold and the “Emax values of Asenapine” value ([4]; I290N, Mean of one experiment) was 77.7708. For the same compound, the Emax ([4]; I290N, Mean of one experiment, read-out: Emax values of Asenapine) was 90.3%, the EC50 ([4]; I290N, Mean of one experiment, read-out: pEC50 values of Asenapine (converted)) was 1.39 µM and 0.721 µM and the EC50 ([4]; I290N, n=2, read-out: EC50) was 1 µM. The Emax ([4]; I290N, n=2, read-out: Span ± SEM (Emax normalized to β-PEA)) was 84 ± 6.25%, the EC50 ([4]; I290N, n=2, read-out: pEC50 ± SEM (converted)) was 1 µM and the Emax ([4]; I290N, relative to β-PEA, read-out: Emax) was 84%. The “ΔEmax values (each mutant value - WT average), I290N, Mean” value ([4]; hTA1 I290N mutant vs WT average, Figure 6B, each line is one experiment (3 replicates)) was 1.57 and -10.9365, the EC50 ([5]; C13S, n=2) was 0.321 µM and the Emax ([5]; C13S, n=2, read-out: Span ± SEM (Emax normalized to β-PEA)) was 77.1 ± 4.84%.

With `NCCc1ccccc1` [β-PEA, β-phenethylamine] the “Span ± SEM (Emax normalized to β-PEA)” value ([1]; C5S, n=2) was 100 ± 2.22, the “pEC50 ± SEM” value ([1]; C5S, n=2) was 7.04 ± 0.05 and the EC50 ([1]; C5S, n=2) was 0.0907 µM. For the same compound, the “ΔEmax values (each mutant value - WT average), Mean” value ([1]; hTA1 C5S minus WT average) was 0, the “ΔpEC50 values (each mutant value - WT average), Mean” value ([1]; hTA1 C5S minus WT average) was 0.0587 and -0.1606 and the “pEC50 values, Mean” value ([1]; hTA1 C5S, mean of 3 replicates, one line per independent experiment) was 7.152 and 6.9329. The “Emax values, Mean” value ([1]; hTA1 C5S, β-PEA = 100, mean of 3 replicates, one line per independent experiment) was 100, the “C5S - Normalized Luminescence Counts (N=2)” value ([1]; M = -5) was 105.865 and 101.779 and 112.458 and 98.7643 and 96.9001 and 118.028 and the “C5S - Normalized Luminescence Counts (N=2)” value ([1]; M = -5.522) was 88.1188 and 112.932 and 94.5762 and 114.438 and 73.9771 and 93.1716. The “C5S - Normalized Luminescence Counts (N=2)” value ([1]; M = -6) was 83.9419 and 90.8734 and 98.6952 and 79.8459 and 79.6388, the “C5S - Normalized Luminescence Counts (N=2)” value ([1]; M = -6.522) was 76.5362 and 74.7073 and 70.3723 and 75.427 and 66.8654 and 70.3867 and the “C5S - Normalized Luminescence Counts (N=2)” value ([1]; M = -7) was 61.9506 and 59.2638 and 58.7445 and 43.9424 and 45.3233 and 47.3256. For the same compound, the “C5S - Normalized Luminescence Counts (N=2)” value ([1]; M = -8.522) was 3.721 and 3.676 and 4.421 and 4.379 and 2.308 and 3.965, the “ΔEmax values (each mutant value - WT average)” value ([2]; S107C mutant minus WT average) was 0 and the “Emax values, Mean” value ([2]; S107C mutant, β-PEA = 100, each line an independent experiment, 3 replicates) was 100. For the same compound, the “Span ± SEM (Emax normalized to β-PEA)” value ([2]; S107C, n=2) was 100 ± 3.55, the “pEC50 ± SEM” value ([2]; S107C, n=2) was 6.69 ± 0.71 and the EC50 ([2]; S107C, n=2, read-out: EC50) was 0.205 µM. The “increase of signal over DMSO-treated controls (hTA1 activation)” value [3] was no less than 4 fold, the “Span ± SEM (Emax normalized to β-PEA)” value ([4]; I290N, n=2) was 100 ± 2.5 and the “pEC50 ± SEM” value ([4]; I290N, n=2) was 7.26 ± 0.06. For the same compound, the EC50 ([4]; I290N, n=2, read-out: EC50) was 0.0547 µM, the “cAMP accumulation response, single replicate values (source data, Supplementary Figure 5)” value ([4]; hTA1 I290N (N=2), log[Compound], M = -5) was 123.698 and 115.527 and 100.651 and 114.899 and the “ΔEmax values (each mutant value - WT average), Mean” value [4, 6] was 0. For the same compound, the “ΔpEC50 values (each mutant value - WT average), Mean” value [4, 6] was 0.1524 and 0.1839, the “pEC50 values, Mean” value ([4]; hTA1 I290N mutant, Figure 3B source data, each grid row a separate experiment, 3 replicates) was 7.2459 and 7.277 and the “Emax values, Mean” value ([4]; hTA1 I290N mutant, β-PEA set to 100, each grid row a separate experiment, 3 replicates) was 100. For the same compound, the “ΔEmax values (each mutant value - WT average)” value ([5]; C13S) was 0, the “ΔpEC50 values (each mutant value - WT average)” value ([5]; C13S) was -0.3351 and -0.4017 and the Emax values ([5]; C13S, Mean of fit per experiment) was 100. The “Span ± SEM (Emax normalized to β-PEA)” value ([5]; C13S, n=2) was 100 ± 2.41, the “pEC50 ± SEM” value ([5]; C13S, n=2) was 6.73 ± 0.05 and the EC50 ([5]; C13S, n=2) was 0.188 µM. For the same compound, the “pEC50 values, Mean” value ([5]; hTA1 C13S, mean of 3 replicates, one line per independent experiment) was 6.758 and 6.6918, the “C13S - Normalized Luminescence Counts (N=2)” value ([5]; M = -5) was 99.2705 and 93.6371 and 125.268 and 108.514 and 91.163 and 111.602 and the “C13S - Normalized Luminescence Counts (N=2)” value ([5]; M = -5.522) was 84.5018 and 89.7165 and 90.3636 and 93.2337 and 75.9363 and 100.338. The “C13S - Normalized Luminescence Counts (N=2)” value ([5]; M = -6) was 78.7162 and 86.7856 and 86.6715 and 80.2383 and 65.7078 and 88.5033 and the “C13S - Normalized Luminescence Counts (N=2)” value ([5]; M = -6.522) was 64.3281 and 49.293 and 64.0617 and 65.0295 and 54.7831 and 70.7417.
